Data reported in patent publication US9102620B2, “Deuterated N-ethyl-N-phenyl-1,2-dihydro-4-hydroxy-5-chloro-1-methyl-2-oxoquinoline-3-carboxamide, salts and uses thereof” (TEVA PHARMACEUTICAL INDUSTRIES, LTD., priority 2010, dated 2015).
Like-named read-outs stand apart in the source and are kept apart here.

Experiments:
[1] = system: CYP1A2 mRNA; details: human, 3 days; for mRNA Percent positive control, CYP1A2: hepatocytes
Protocol: (§1) After treatment, the cells were incubated in situ with marker substrates for the analysis of phenacetin O-dealkylation (marker for CYP1A2) and midazolam 1′-hydroxylation (marker for CYP3A4/5) by LC/MS/MS.
(§2) Approximately 24 hours after the last treatment, hepatocytes were lysed in TRIzol reagent after the in situ marker substrate incubations, and cell lysates were stored at −75±5° C. For human hepatocyte preparation H971, media from six wells per treatment group was aspirated, and approximately 132 μL TRIzol were added to each well. The cell lysates were mixed by repeated pipetting. Total RNA was isolated from the cell lysates using the TRIzol protocol (Invitrogen) and was purified using the RNeasy Mini Kit (Qiagen Inc.) according to SOP L6161.02. RNA quality and concentration were determined by measuring absorbance at 260 and 280 nm on a BioTek Synergy HT plate reader (BioTek Instruments, Inc.) with KC4 Signature software (version 3.4 Rev 21, BioTek Instruments, Inc.) according to SOP L6162.02. The analysis of RNA integrity was carried out with the RNA 6000 Nano Assay Kit on an Agilent 2100 Bioanalyzer (Agilent Technologies, Inc.) according to SOP L6162.02. Single-stranded cDNA was prepared from RNA with the RT Master Mix using the AB 7300 Real Time PCR system thermocycling program or AB 7900HT Fast Real Time PCR System thermocycling program (Applied Biosystems) according to SOP L6160.04. […] The RT Master Mix was added to each RNA sample to complete the components of the reaction. No template controls (NTCs) were included in the analysis. For the NTC reactions, RNase-free water was added in place of the RNA sample. The cDNA prepared samples were stored at −20±5° C. prior to analysis by qRT-PCR.
(§3) Quantitative RT-PCR was carried out according to SOP L6160.04 (XenoTech, LLC) and the Applied Biosystems protocol. Each PCR was performed in triplicate. A Primer Mix was prepared for each Gene Expression assay. A typical Primer Mix contained TaqMan Universal Master Mix (1×), Gene Expression Assay (1×, 900 nM forward and reverse primers) and RNase-free water. The Reaction Mix was prepared by adding the Primer Mix to cDNA. A percentage of samples (no less than 10%) included NACs. […] The relative quantity of the target cDNA compared with that of the control cDNA (GAPDH) was determined by the ΔΔCt method (Applied Biosystems User Bulletin #2). Relative quantification measures the change in mRNA expression in a test sample relative to that in a control sample (e.g., DMSO). This method assumes that the efficiency of the target amplification and the efficiency of the endogenous control amplification are approximately equal.
(§4) For qRT-PCR, data were processed using the Sequence Detection System (SDS) Software version 1.4, for Relative Quantification (Applied Biosystems). This software analyzes relative gene expression using the comparative Ct method (ΔΔCt), which relates the PCR signal of the target transcript to the PCR signal of the target in an untreated control. Both the treated sample and the untreated control signals are normalized to the endogenous control (GAPDH), for which expression is not affected by treatment and expression is constant throughout the tissue being tested. […] Calculations are as follows: ΔCt=Ct(target)−Ct(endogenous control) 1. ΔΔCt=ΔCt(treated sample)−ΔCt(untreated control) 2. Fold change in expression=2−ΔΔCt 3.
(§5) The level of mRNA expression relative to the positive control was calculated as follows: […]

[2] = system: CYP3A4 mRNA; details: human, 3 days; for mRNA Percent positive control, CYP3A4: hepatocytes
Protocol: as §1, §2, §3, §4, §5

[3] = system: CYP1A2; details: human, 3 days; for Enzyme activity, Phenacetin O-dealkylation (CYP1A2) / Percent positive control, Phenacetin O-dealkylation (CYP1A2) activity: hepatocytes
Protocol: as §1
(§6) Incubations of hepatocytes with probe substrates were conducted in accordance with SOP L5041.02. Approximately 24 hours after the last treatment, spent media was aspirated from the wells, and each well was rinsed two times with pre-warmed (37±2° C.) fresh culture media. Media was aspirated from the wells and reactions were started by addition of 200 μL pre-warmed media containing the probe substrate to each well. […] At 30 minutes, an aliquot (150 μL) of the incubation mixture was removed and added to a well of a 96-well plate containing 300 μL of stop reagent (acetonitrile) and internal standard (Table 2). The mixtures were mixed thoroughly and allowed to sit for at least 15 minutes at 2-8° C. Samples were centrifuged at 2000×g for 10 minutes at 2-8° C., and supernatant fractions were analyzed by LC/MS/MS.
(§7) All analyses were performed with validated LC/MS/MS methods. The procedures used for the analysis of each metabolite followed the applicable LC/MS/MS analytical method SOPs and are summarized in Table 2. The MS equipment was either an ABI Sciex (Applied Biosystems/MDS SCIEX) API 4000 or API 3000 instrument with Shimadzu HPLC pumps and autosampler systems.
(§8) Individual rates of reaction from like treatment groups were averaged, and for those groups with n≧3, standard deviations were determined. Fold increases were determined by dividing the enzymatic rate for each treatment group by that of the vehicle control. Percent positive control was calculated with the following equation: […]

[4] = system: CYP3A4/5; details: human, 3 days; for Enzyme activity, Midazolam 1′-hydroxylation (CYP3A4/5) / Percent positive control, Midazolam 1′-hydroxylation (CYP3A4/5) activity: hepatocytes
Protocol: as §1, §6, §7, §8

## CCN(C(=O)c1c(O)c2c(Cl)cccc2n(C)c1=O)c1ccccc1 [Laquinimod, N-ethyl-N-phenyl-1,2-dihydro-4-hydroxy-5-chloro-1-methyl-2-oxoquinoline-3-carboxamide]
[1]; 0.01 μM
  mRNA Fold increase, CYP1A2: 4.22 fold
  mRNA Percent positive control, CYP1A2: 42.5%
[1]; 0.05 μM
  mRNA Fold increase, CYP1A2: 7.90 fold
  mRNA Percent positive control, CYP1A2: 91.1%
[1]; 0.1 μM
  mRNA Fold increase, CYP1A2: 9.50 fold
  mRNA Percent positive control, CYP1A2: 112%
[1]; 1 μM
  mRNA Fold increase, CYP1A2: 16.8 fold
  mRNA Percent positive control, CYP1A2: 209%
[1]; 10 μM
  mRNA Fold increase, CYP1A2: 20.5 fold
  mRNA Percent positive control, CYP1A2: 257%
[2]; 0.01 μM
  mRNA Fold increase, CYP3A4: 0.621 fold
  mRNA Percent positive control, CYP3A4: −10.4%
[2]; 0.05 μM
  mRNA Fold increase, CYP3A4: 0.347 fold
  mRNA Percent positive control, CYP3A4: −18.0%
[2]; 0.1 μM
  mRNA Fold increase, CYP3A4: 0.427 fold
  mRNA Percent positive control, CYP3A4: −15.8%
[2]; 1 μM
  mRNA Fold increase, CYP3A4: 0.286 fold
  mRNA Percent positive control, CYP3A4: −19.7%
[2]; 10 μM
  mRNA Fold increase, CYP3A4: 0.636 fold
  mRNA Percent positive control, CYP3A4: −10.0%
[3]; 0.01 μM
  Fold Increase, Phenacetin O-dealkylation (CYP1A2) activity: 8.43 fold
  Enzyme activity, Phenacetin O-dealkylation (CYP1A2): 25.2 ± 0.8 pmol/mg protein/min
  Percent positive control, Phenacetin O-dealkylation (CYP1A2) activity: 27.1%
[3]; 0.05 μM
  Fold Increase, Phenacetin O-dealkylation (CYP1A2) activity: 18.06 fold
  Enzyme activity, Phenacetin O-dealkylation (CYP1A2): 54.0 ± 4.5 pmol/mg protein/min
  Percent positive control, Phenacetin O-dealkylation (CYP1A2) activity: 62.3%
[3]; 0.1 μM
  Fold Increase, Phenacetin O-dealkylation (CYP1A2) activity: 21.75 fold
  Enzyme activity, Phenacetin O-dealkylation (CYP1A2): 65.1 ± 1.9 pmol/mg protein/min
  Percent positive control, Phenacetin O-dealkylation (CYP1A2) activity: 75.8%
[3]; 1 μM
  Fold Increase, Phenacetin O-dealkylation (CYP1A2) activity: 43.79 fold
  Enzyme activity, Phenacetin O-dealkylation (CYP1A2): 131 ± 12 pmol/mg protein/min
  Percent positive control, Phenacetin O-dealkylation (CYP1A2) activity: 156%
[3]; 10 μM
  Fold Increase, Phenacetin O-dealkylation (CYP1A2) activity: 61.02 fold
  Enzyme activity, Phenacetin O-dealkylation (CYP1A2): 183 ± 7 pmol/mg protein/min
  Percent positive control, Phenacetin O-dealkylation (CYP1A2) activity: 219%
[4]; 0.01 μM
  Fold Increase, Midazolam 1′-hydroxylation (CYP3A4/5) activity: 0.92 fold
  Enzyme activity, Midazolam 1′-hydroxylation (CYP3A4/5): 0.180 ± 0.023 pmol/mg protein/min
  Percent positive control, Midazolam 1′-hydroxylation (CYP3A4/5) activity: −2.04%
[4]; 0.05 μM
  Fold Increase, Midazolam 1′-hydroxylation (CYP3A4/5) activity: 0.82 fold
  Enzyme activity, Midazolam 1′-hydroxylation (CYP3A4/5): 0.161 ± 0.013 pmol/mg protein/min
  Percent positive control, Midazolam 1′-hydroxylation (CYP3A4/5) activity: −4.63%
[4]; 0.1 μM
  Fold Increase, Midazolam 1′-hydroxylation (CYP3A4/5) activity: 0.78 fold
  Enzyme activity, Midazolam 1′-hydroxylation (CYP3A4/5): 0.151 ± 0.002 pmol/mg protein/min
  Percent positive control, Midazolam 1′-hydroxylation (CYP3A4/5) activity: −5.89%
[4]; 1 μM
  Fold Increase, Midazolam 1′-hydroxylation (CYP3A4/5) activity: 0.54 fold
  Enzyme activity, Midazolam 1′-hydroxylation (CYP3A4/5): 0.106 ± 0.004 pmol/mg protein/min
  Percent positive control, Midazolam 1′-hydroxylation (CYP3A4/5) activity: −12.0%
[4]; 10 μM
  Fold Increase, Midazolam 1′-hydroxylation (CYP3A4/5) activity: 0.49 fold
  Enzyme activity, Midazolam 1′-hydroxylation (CYP3A4/5): 0.0957 ± 0.0067 pmol/mg protein/min
  Percent positive control, Midazolam 1′-hydroxylation (CYP3A4/5) activity: −13.4%
